According to publication PMC4154125, “Crystal structures of highly specific phosphinic tripeptide enantiomers in complex with the angiotensin‐I converting enzyme” (The Febs Journal, 2013):

Legend:
AnCE [1] = molecular target: T1, AnCE (Drosophila melanogaster, UniProt Q10714); assay: inhibition of hippuryl-histidyl-leucine hydrolysis, Ki from IC50 (Cheng-Prusoff); type: biochemical; settings: read-out: apparent Ki
T1 construct: recombinant single-domain enzyme, secreted from Pichia pastoris, purified
T1 sequence (Q10714 18-615): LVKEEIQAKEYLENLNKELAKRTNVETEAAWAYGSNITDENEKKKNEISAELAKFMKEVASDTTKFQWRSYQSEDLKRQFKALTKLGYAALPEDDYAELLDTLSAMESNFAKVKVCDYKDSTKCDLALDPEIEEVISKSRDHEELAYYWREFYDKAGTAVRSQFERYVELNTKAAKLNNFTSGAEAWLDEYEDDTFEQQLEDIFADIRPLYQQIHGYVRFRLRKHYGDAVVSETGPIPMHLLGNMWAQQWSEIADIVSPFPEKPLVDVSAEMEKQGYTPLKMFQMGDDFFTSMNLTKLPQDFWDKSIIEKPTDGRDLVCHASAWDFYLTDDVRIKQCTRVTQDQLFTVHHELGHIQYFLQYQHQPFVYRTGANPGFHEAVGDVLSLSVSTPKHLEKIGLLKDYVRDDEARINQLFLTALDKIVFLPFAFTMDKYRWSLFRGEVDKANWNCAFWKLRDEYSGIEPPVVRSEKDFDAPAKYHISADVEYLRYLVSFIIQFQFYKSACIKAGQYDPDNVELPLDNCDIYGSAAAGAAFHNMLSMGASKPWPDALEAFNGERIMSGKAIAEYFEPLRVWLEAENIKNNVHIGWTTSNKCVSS

AnCE [2] = molecular target: T1, AnCE; assay: inhibition of hippuryl-histidyl-leucine hydrolysis; type: biochemical
C-ACE = molecular target: T2, C-ACE (Homo sapiens, UniProt P12821); assay: X-ray crystal structure, […] Å; type: binding; settings: co-crystal, pH 4.0 reservoir; active site, zinc coordination
T2 construct: tACEΔ36-g13, truncated underglycosylated variant of testis ACE (C-domain), CHO cells, purified
T2 sequence (P12821 642-1230): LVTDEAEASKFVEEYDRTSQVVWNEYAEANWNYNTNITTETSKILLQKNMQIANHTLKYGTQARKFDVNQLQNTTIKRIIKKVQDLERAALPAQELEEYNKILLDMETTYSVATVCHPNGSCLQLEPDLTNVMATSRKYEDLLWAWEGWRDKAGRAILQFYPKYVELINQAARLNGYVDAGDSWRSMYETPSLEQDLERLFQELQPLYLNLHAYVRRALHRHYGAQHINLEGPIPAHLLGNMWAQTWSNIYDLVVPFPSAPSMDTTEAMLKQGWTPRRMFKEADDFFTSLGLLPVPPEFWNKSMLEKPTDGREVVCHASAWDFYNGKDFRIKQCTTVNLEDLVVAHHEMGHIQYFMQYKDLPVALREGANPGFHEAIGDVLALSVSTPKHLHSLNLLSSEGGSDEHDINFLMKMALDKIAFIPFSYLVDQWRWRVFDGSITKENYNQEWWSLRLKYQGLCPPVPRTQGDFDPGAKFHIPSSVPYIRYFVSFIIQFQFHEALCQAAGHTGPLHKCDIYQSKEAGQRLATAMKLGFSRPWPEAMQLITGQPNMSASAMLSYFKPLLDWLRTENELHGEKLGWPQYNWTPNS

Ki (AnCE [1]) | IC50 (AnCE [2]) | SMILES | X-ray crystal structure, 1.85 Å (C-ACE)
24 nM | 44 nM | O=C(N[C@@H](Cc1ccccc1)P(=O)(O)C[C@@H](Cc1cc(-c2ccccc2)no1)C(=O)N[C@@H](Cc1ccc(O)cc1)C(=O)O)OCc1ccccc1 [FI, (2S)‐2‐({3‐[hydroxyl (2‐phenyl‐(1R)‐1‐{[(benzyloxy)carbonyl]‐amino}ethyl)phosphinyl]‐2‐[(3‐phenylisoxazol‐5‐yl)methyl]‐1‐oxo‐propyl}amino)‐3‐(4‐hydroxy‐phenyl) propanoic acid] | One bound inhibitor molecule was modelled in the catalytic site of C‐ACE
120 nM | 210 nM | O=C(N[C@@H](Cc1ccccc1)P(=O)(O)C[C@H](Cc1cc(-c2ccccc2)no1)C(=O)N[C@@H](Cc1ccc(O)cc1)C(=O)O)OCc1ccccc1 [FII, (2S)‐2‐({3‐[hydroxyl (2‐phenyl‐(1R)‐1‐{[(benzyloxy)carbonyl]‐amino}ethyl)phosphinyl]‐2‐[(3‐phenylisoxazol‐5‐yl)methyl]‐1‐oxo‐propyl}amino)‐3‐(4‐hydroxy‐phenyl) propanoic acid] | –
